Here are results for 12 compounds from patent US9670166B2, “Substituted bicyclic dihydropyrimidinones and their use as inhibitors of neutrophil elastase activity” (Boehringer Ingelheim International GmbH, priority 2013, dated 2017).

The nature of data set [1]: Aqueous solubility. In kind it is physicochemical. As to conditions: McIlvaine buffer pH 6.8, 2.5% DMSO, 24 h shaking. The procedure:
Assay for Determination of Aqueous Solubility […] After 24 h of shaking, the solutions or suspensions are filtered and analyzed by LC-UV. The amount dissolved in buffer is compared to the amount dissolved in the acetonitrile/water (1/1) solution.

The nature of data set [2]: Metabolic stability with human liver microsomes. To be noted: pooled human liver microsomes 1 mg/ml, test compound 1 μM, 37° C., NADPH. (Liver microsomes are vesicles of endoplasmic reticulum, rich in cytochrome P450 enzymes.)
Data set [3] concerns Caco-2 cells. As to the kind of experiment: Drug transport across human Caco-2 cells. As to conditions: for Efflux ratio: PEBA/PEAB; for PEAB: apical-to-basal; for PEAB / PEBA: Caco-2 monolayers, pH 7.2, 37° C.; for PEBA: basal-to-apical. In kind it is in vitro ADME. In general terms: Caco-2 cells form a polarised layer with tight junctions and transporters.
From the text: Assay for Determination of Drug Transport Across Human Caco-2 Cells
The assay provides information on the potential of a compound to pass the cell membrane, on the extent of oral absorption as well as on whether the compound is actively transported by uptake and/or efflux transporters.
The compounds are assigned to permeability/absorption classes by comparison of the AB permeabilities with the AB permeabilities of reference compounds with known in vitro permeability and oral absorption in the human. Identical or similar permeabilities in both transport directions indicate passive permeation, vectorial permeability points to additional active transport mechanisms. […] Active transport is concentration-dependently saturable.
Caco-2 cells (1-2*10^5 cells/cm^2 area) are seeded on filter inserts (Costar transwell polycarbonate or PET filters, 0.4 μm pore size) and cultured (DMEM) for 10 to 25 days. Compounds are dissolved in appropriate solvent (like DMSO, 1-20 mM stock solutions). […] The transport solution (TL) is applied to the apical or basolateral donor side for measuring A-B or B-A permeability (3 filter replicates), respectively. The receiver side contains HTP-4 buffer supplemented with 2% BSA. […] Sampled receiver volumes are replaced with fresh receiver solution.
Data set [4] in a line: Metabolic stability with human hepatocytes. In kind it is in vitro ADME. To be noted: human hepatocyte suspension, 1 μM, scaled by well stirred model.
Method: The cells are incubated for six hours (incubator, orbital shaker) and samples (25 μl) are taken at 0, 0.5, 1, 2, 4 and 6 hours. Samples are transferred into acetonitrile and pelleted by centrifugation (5 min) The supernatant is transferred to a new 96-deepwell plate, evaporated under nitrogen and resuspended. The decline of parent compound is analyzed by LC-MS/MS.
The intrinsic clearance CL_[sequence] is calculated as follows: CL_[sequence]=Dose/AUC=(C0/CD)/(AUD+clast/k)*1,000/60
(C0: initial concentration in the incubation [μM], CD: cell density of vital cells [10^6 cells/mL], AUD: area under the data [μM*h], clast: concentration of last data point [μM], k: slope of the regression line for parent decline [h^−1])
The calculated in vitro hepatic intrinsic clearance can be scaled up to the intrinsic in vivo hepatic clearance and used to predict hepatic in vivo blood clearance (CL) by the use of a liver model (well stirred model): CL_[sequence]_INVIVO [ml/min/kg]=(CL_[sequence] [μL/min/10^6 cells]*hepatocellularity [10^6 cells/g liver]*liver factor [g/kg bodyweight])/1,000 CL [ml/min/kg]=CL_[sequence]_INVIVO [ml/min/kg]*hepatic blood flow [ml/min/kg]/(CL_[sequence]_INVIVO [ml/min/kg]+hepatic blood flow [ml/min/kg]) Qh [%]=CL [ml/min/kg]/hepatic blood flow [ml/min/kg])

Structures are written as SMILES.

What is called Aqueous solubility is the concentration that dissolves in the medium under given conditions. Read a high Aqueous solubility as a readily soluble substance. `N#Cc1ccc([C@@H]2C3=C(CCC3=O)N(c3cccc(C(F)(F)F)c3)C(=O)N2C(=O)N[C@H]2CCC[C@@H]2O)cc1` [Example 45.4] displayed an Aqueous solubility in data set [1] of 28 µg/mL. The “t1/2 INVITRO” value in data set [2] was greater than 2.17 h. In addition, in data set [3], the Efflux ratio amounted to 2.0, the PEAB amounted to 38.1 ×10⁻⁶ cm/s and the PEBA worked out at 77.2 ×10⁻⁶ cm/s.
In the same order, the values of `N#Cc1ccc(C2C3=C(CCC3=O)N(c3cccc(C(F)(F)F)c3)C(=O)N2C(=O)N[C@@H]2CCC[C@H]2O)cc1` (some centres unmarked) [Example 42.3] are 20 µg/mL, greater than 2.17 h, 2.4, 36.2 ×10⁻⁶ cm/s and 86 ×10⁻⁶ cm/s.
On to `CCNC(=O)N1C(=O)N(c2cccc(C(F)(F)F)c2)C2=C(C(=O)CC2)[C@H]1c1ccc(C#N)cc1S(C)(=O)=O` [Example 47.2], for which the Aqueous solubility in data set [1] worked out at 45 µg/mL. Also, in data set [2], the “t1/2 INVITRO” value is greater than 2.17 h. Besides, the “CL (predicted human hepatic in vivo blood clearance)” value in data set [4] is 1 mL/min/kg. In data set [3], the PEAB was 12.8 ×10⁻⁶ cm/s and the PEBA stood at 84.5 ×10⁻⁶ cm/s.
For the compound `CS(=O)(=O)c1cc(C#N)ccc1C1C2=C(CCC2=O)N(c2cccc(C(F)F)c2)C(=O)N1C(=O)NC1CC1` (centres unmarked) [Example 53.3], the Aqueous solubility in data set [1] stood at 34 µg/mL.
Regarding `N#Cc1ccc(C2C3=C(CCC3=O)N(c3cccc(C(F)(F)F)c3)C(=O)N2C(=O)N[C@H]2COC[C@H]2O)cc1` (some centres unmarked) [Example 42.6], in data set [1], the Aqueous solubility worked out at 67 µg/mL. In addition, the “CL (predicted human hepatic in vivo blood clearance)” value in data set [4] is 5 mL/min/kg.
With `CC(C)NC(=O)N1C(=O)N(c2cccc(C(F)(F)F)c2)C2=C(C(=O)CC2)[C@H]1c1ccc(C#N)cc1S(C)(=O)=O` [Example 47.5], in data set [1], the Aqueous solubility was 16 µg/mL. In addition, the “t1/2 INVITRO” value in data set [2] was greater than 2.17 h. For the same compound, in data set [3], the PEAB is 19.2 ×10⁻⁶ cm/s and the PEBA is 86.7 ×10⁻⁶ cm/s.
For the compound `N#Cc1ccc([C@@H]2C3=C(CCC3=O)N(c3cccc(C(F)(F)F)c3)C(=O)N2C(=O)N[C@H]2COC[C@@H]2O)cc1` [Example 45.5], the Aqueous solubility in data set [1] amounted to 56 µg/mL. Besides, the “t1/2 INVITRO” value in data set [2] is greater than 2.17 h. Moreover, the “CL (predicted human hepatic in vivo blood clearance)” value in data set [4] is 0 mL/min/kg.
In the same order, the values of `CS(=O)(=O)CCNC(=O)N1C(=O)N(c2cccc(C(F)(F)F)c2)C2=C(C(=O)CC2)C1c1ccc(C#N)cc1F` (centres unmarked) [Example 49.3] are 32 µg/mL, greater than 2.17 h and 0 mL/min/kg.
The compound `N#Cc1ccc(C2C3=C(CCC3=O)N(c3cccc(C(F)F)c3)C(=O)N2C(=O)NCCO)cc1` (centres unmarked) [Example 52.3] had an Aqueous solubility in data set [1] of 91 µg/mL. Besides, the “t1/2 INVITRO” value in data set [2] is greater than 2.17 h.
As for `CC(C)(O)CNC(=O)N1C(=O)N(c2cccc(C(F)F)c2)C2=C(C(=O)CC2)C1c1ccc(C#N)cc1` (centres unmarked) [Example 52.5], the Aqueous solubility in data set [1] was 70 µg/mL. Besides, the “t1/2 INVITRO” value in data set [2] was greater than 2.17 h. In addition, in data set [3], the Efflux ratio amounted to 14.1, the PEAB came to 4.45 ×10⁻⁶ cm/s and the PEBA was found to be 62.7 ×10⁻⁶ cm/s.
In the same order, the values of `CNC(=O)N1C(=O)N(c2cccc(C(F)F)c2)C2=C(C(=O)CC2)C1c1ccc(C#N)cc1` (centres unmarked) [Example 52.1] are 41 µg/mL, greater than 2.17 h, 1.0, 57.1 ×10⁻⁶ cm/s and 58.3 ×10⁻⁶ cm/s.
As for `CS(=O)(=O)c1cc(C#N)ccc1[C@@H]1C2=C(CCC2=O)N(c2cccc(C(F)(F)F)c2)C(=O)N1C(=O)NC1CC1` [Example 47.4], the Aqueous solubility in data set [1] amounted to 19 µg/mL. For the same compound, in data set [2], the “t1/2 INVITRO” value was greater than 2.17 h. Further, in data set [3], the PEAB turned out to be 7.74 ×10⁻⁶ cm/s and the PEBA stood at 85.5 ×10⁻⁶ cm/s.
